Source: PubChem BioAssay AID2060889 (Molecular Pharmacology Branch, DTP, NCI, 2025)

Test system: LG0567-F671-PDC complex spheroids viability
Assay: Anticancer human tumor LG0567-F671-PDC patient-derived lung adenocarcinoma cell line growth inhibition [RAS]
Details: for IC50: curve of first compound; for viability, T/C: stronger effect = lower value
How it was run: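 Multi-cell-type spheroids: tumor cells plus HUVEC endothelial cells and mesenchymal stem cells. RAS-pathway inhibitors were combined with targeted agents, each dosed in half-log steps down from clinical Cmax, or from 10 microM when Cmax was unknown.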

[1] = second compound 0.000949 µM, first compound 0.0316 µM
[2] = second compound 0.000949 µM, first compound 0.1 µM
[3] = second compound 0.000949 µM, first compound 0.316 µM
[4] = second compound 0.000949 µM, first compound 1 µM
[5] = second compound 0.000949 µM, first compound 3.16 µM
[6] = second compound 0.000949 µM, first compound 10 µM
[7] = second compound 0.003 µM, first compound 0.0316 µM
[8] = second compound 0.003 µM, first compound 0.1 µM
[9] = second compound 0.003 µM, first compound 0.316 µM
[10] = second compound 0.003 µM, first compound 1 µM
[11] = second compound 0.003 µM, first compound 3.16 µM
[12] = second compound 0.003 µM, first compound 10 µM
[13] = second compound 0.00949 µM, first compound 0.0316 µM
[14] = second compound 0.00949 µM, first compound 0.1 µM
[15] = second compound 0.00949 µM, first compound 0.316 µM
[16] = second compound 0.00949 µM, first compound 1 µM
[17] = second compound 0.00949 µM, first compound 3.16 µM
[18] = second compound 0.00949 µM, first compound 10 µM
[19] = second compound 0.03 µM, first compound 0.0316 µM
[20] = second compound 0.03 µM, first compound 0.1 µM
[21] = second compound 0.03 µM, first compound 0.316 µM
[22] = second compound 0.03 µM, first compound 1 µM
[23] = second compound 0.03 µM, first compound 3.16 µM
[24] = second compound 0.03 µM, first compound 10 µM
[25] = second compound 0.0949 µM, first compound 0.0316 µM
[26] = second compound 0.0949 µM, first compound 0.1 µM
[27] = second compound 0.0949 µM, first compound 0.316 µM
[28] = second compound 0.0949 µM, first compound 1 µM
[29] = second compound 0.0949 µM, first compound 3.16 µM
[30] = second compound 0.0949 µM, first compound 10 µM
[31] = second compound 0.3 µM, first compound 0.0316 µM
[32] = second compound 0.3 µM, first compound 0.1 µM
[33] = second compound 0.3 µM, first compound 0.316 µM
[34] = second compound 0.3 µM, first compound 1 µM
[35] = second compound 0.3 µM, first compound 3.16 µM
[36] = second compound 0.3 µM, first compound 10 µM
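Also: spheroids exposed to compound for seven days before readout.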
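For IC50 in this document: luminescence signal used as a proxy for viable cells.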

## CC(=O)OC12COC1CC(O)C1(C)C(=O)C(O)C3=C(C)C(OC(=O)C(O)C(NC(=O)OC(C)(C)C)c4ccccc4)CC(O)(C(OC(=O)c4ccccc4)C21)C3(C)C (centres undefined) + CCn1c(-c2cc(N3CCN(C)CC3)cnc2C(C)OC)c2c3cc(ccc31)-c1csc(n1)CC(NC(=O)C1CC1C)C(=O)N1CCCC(N1)C(=O)OCC(C)(C)C2
Second compound 0.000949 µM
  IC50: < 0.0316 µM
Second compound 0.003 µM
  IC50: < 0.0316 µM
Second compound 0.00949 µM
  IC50: < 0.0316 µM
Second compound 0.03 µM
  IC50: < 0.0316 µM
Second compound 0.0949 µM
  IC50: < 0.0316 µM
Second compound 0.3 µM
  IC50: < 0.0316 µM
[1]
  viability, T/C: 17.3%
[2]
  viability, T/C: 14.6%
[3]
  viability, T/C: 16.6%
[4]
  viability, T/C: 20.3%
[5]
  viability, T/C: 21.7%
[6]
  viability, T/C: 15.3%
[7]
  viability, T/C: 8.54%
[8]
  viability, T/C: 7.86%
[9]
  viability, T/C: 8.72%
[10]
  viability, T/C: 8.18%
[11]
  viability, T/C: 8.46%
[12]
  viability, T/C: 5.71%
[13]
  viability, T/C: 5.57%
[14]
  viability, T/C: 4.28%
[15]
  viability, T/C: 4.95%
[16]
  viability, T/C: 3.96%
[17]
  viability, T/C: 4.72%
[18]
  viability, T/C: 3.03%
[19]
  viability, T/C: 3.18%
[20]
  viability, T/C: 3.69%
[21]
  viability, T/C: 3.02%
[22]
  viability, T/C: 3.03%
[23]
  viability, T/C: 2.9%
[24]
  viability, T/C: 1.92%
[25]
  viability, T/C: 2.46%
[26]
  viability, T/C: 2.37%
[27]
  viability, T/C: 2.22%
[28]
  viability, T/C: 2.27%
[29]
  viability, T/C: 2.34%
[30]
  viability, T/C: 1.6%
[31]
  viability, T/C: 2.92%
[32]
  viability, T/C: 1.92%
[33]
  viability, T/C: 1.85%
[34]
  viability, T/C: 1.89%
[35]
  viability, T/C: 2.06%
[36]
  viability, T/C: 1.66%

## CCC(CC)c1cc(NC2CCC(N)C2)n2nccc2n1 (centres undefined) + CCn1c(-c2cc(N3CCN(C)CC3)cnc2C(C)OC)c2c3cc(ccc31)-c1csc(n1)CC(NC(=O)C1CC1C)C(=O)N1CCCC(N1)C(=O)OCC(C)(C)C2
Second compound 0.000949 µM
  IC50: < 0.0316 µM
Second compound 0.003 µM
  IC50: < 0.0316 µM
Second compound 0.00949 µM
  IC50: < 0.0316 µM
Second compound 0.03 µM
  IC50: < 0.0316 µM
Second compound 0.0949 µM
  IC50: < 0.0316 µM
Second compound 0.3 µM
  IC50: < 0.0316 µM
[1]
  viability, T/C: 23.1%
[2]
  viability, T/C: 23.2%
[3]
  viability, T/C: 25.9%
[4]
  viability, T/C: 22.7%
[5]
  viability, T/C: 0.34%
[6]
  viability, T/C: 0.1%
[7]
  viability, T/C: 10.8%
[8]
  viability, T/C: 9.27%
[9]
  viability, T/C: 10.1%
[10]
  viability, T/C: 9.94%
[11]
  viability, T/C: 0.21%
[12]
  viability, T/C: 0.08%
[13]
  viability, T/C: 6.93%
[14]
  viability, T/C: 7.19%
[15]
  viability, T/C: 6.29%
[16]
  viability, T/C: 4.74%
[17]
  viability, T/C: 0.26%
[18]
  viability, T/C: 0.09%
[19]
  viability, T/C: 4.43%
[20]
  viability, T/C: 3.65%
[21]
  viability, T/C: 3.4%
[22]
  viability, T/C: 2.31%
[23]
  viability, T/C: 0.18%
[24]
  viability, T/C: 0.09%
[25]
  viability, T/C: 2.75%
[26]
  viability, T/C: 2.83%
[27]
  viability, T/C: 2.71%
[28]
  viability, T/C: 1.9%
[29]
  viability, T/C: 0.21%
[30]
  viability, T/C: 0.11%
[31]
  viability, T/C: 2.39%
[32]
  viability, T/C: 2.56%
[33]
  viability, T/C: 2.39%
[34]
  viability, T/C: 1.46%
[35]
  viability, T/C: 0.22%
[36]
  viability, T/C: 0.15%
